# Results from PubChem BioAssay AID1963428 (Molecular Pharmacology Branch, DTP, NCI, 2024).
# Test system: 171881-019-R-J1-PDC complex spheroid growth, % test/control
# Assay: Anticancer human tumor 171881-019-R-J1-PDC patient-derived invasive breast carcinoma cell line growth inhibition [Asc]
# Settings: for IC50: curve of first compound; for viability, T/C: stronger effect = lower value
# Method: Multicellular complex tumor spheroid response to apoptosis pathway targeting inhibitors Alrizomadlin, Pelcitoclax, and Dasminapant in combination with a variety of drugs and investigational agents in selected tumor cell lines
# The MDM2 inhibitor alrizomadlin, the Bcl-2/Bcl-xL inhibitor pelcitoclax, and the IAPs inhibitor dasminapant were evaluated both individually and in combination with standard of care and investigational anticancer small molecules within a complex spheroid model of solid tumors. . Complex spheroids include a stromal component modeled by human endothelial cells (HUVEC) and fibroblasts modeled by human mesenchymal stem cells (MSCs). The concentration ranges selected for each drug and investigational agent were based upon clinically achievable concentrations if the clinical Cmax of the agent was known.
# Compounds. The drugs and investigational agents: alrizomadlin (APG-115; NSC831270), pelcitoclax (APG-1252; NSC835773), dasminapant (APG-1387;NSC834197), TAK-243 (NSC785004), copanlisib (NSC809693), olaparib (NSC753686), talazoparib (NSC767125), cobimetinib (NSC 768068), eltanexor (KPT-8602, NSC 794443), abemaciclib (NSC 768073), sotorasib (NSC818433), adagrasib (NSC 831453), MRTX-1133 (NSC 836407), Iadademestat (ORY1001, NSC 806812), and RMC-4630 (NSC839698), were obtained from the NCI Developmental Therapeutics Program Chemical Repository. The FDA-approved anticancer drug set is available from the Developmental Therapeutics Program at https://dtp.cancer.gov/organization/dscb/obtaining/available plates.htm. […] The stock solutions were prepared in dimethyl sulfoxide (DMSO, Sigma-Aldrich, St. Louis, MO, cat. D2650) at 800-fold the tested concentration and stored at -70 degrees C prior to their use. All drugs and investigational agents were tested over a range starting from a high concentration at or near the clinical Cmax and decreasing in half-log increments. If the clinical Cmax for an agent had not been determined, the highest concentration tested was 10 microM.
# The patient-derived cancer (PDC) cell lines include five colon adenocarcinomas: 186277-243-T-J2-PDC, 616215-338-R-J1-PDC, 439559-082-T-J2-PDC, 463943-066-T-J2-PDC, and 519858-162-T-J1-PDC; three pancreatic carcinomas: 323965-272-R-J2-PDC, 521955-158-R6-J3-PDC, and 521955-158-R2-J5-PDC; two uterine sarcomas: 327498-152-R-J2-PDC and 993429-296-R-J1-PDC; two rhabdomyosarcomas: 755483-174-R-J1-PDC and 772245-204-R-J1-PDC; two soft tissue sarcomas: 126254-015-R-J1-PDC and 494315-158-R-J1-PDC; two malignant fibrous histiocytomas: 317291-083-R-J1-PDC and 596521-263-R-J1-PDC; two breast carcinomas: 171881-019-R-J1-PDC and 885512-296-R-J2-PDC; and one ovarian carcinoma: 6556581-035-R-J-PDC were obtained from the NCI PDMR, (https://pdmr.cancer.gov). The established cell lines HSSY-2 synovial sarcoma (RRID:CVCL 8719), SYO-1 synovial sarcoma (RRID:CVCL_7146), MPNST malignant peripheral neural sheath tumor were obtained from the Sloan Kettering Institute. The following established cell lines were purchased from the American Type Culture Collection (ATCC, Manassas, VA), Sor the received from the NCI repository:, PANC-1 pancreatic carcinoma (CRL-1469, RRID:CVCL_0480), OVCAR-5 ovarian carcinoma (RRID:CVCL_1628), OVCAR-8 ovarian carcinoma (RRID:CVCL_1629), , MCF-7 breast carcinoma (CRL-12584, RRID:CVCL_0031), MDA-MB-231 breast carcinoma (CRL-12532, RRID:CVCL_0062), NCI-H1876 small cell lung carcinoma (CRL-5902, RRID:CVCL_1503), NCI-H510A small cell lung carcinoma (HTB-184, RRID:CVCL_1565), NCI-H1417 (CRL-5869, RRID:CVCL_1469), and NCI-H196 small cell lung carcinoma (CRL-5823, RRID:CVCL_1509). Dr. Peter Houghton (Greehey Children's Cancer Research Institute, University of Texas Health Science Center, San Antonio, TX) provided Rh-18 rhabdomyosarcoma (RRID:CVCL_1659). Pooled donor human umbilical vein endothelial cells (HUVEC, Lonza, cat. CC-2519) and human mesenchymal stem cells (hMSC, Lonza, cat. PT-2501) were purchased from Lonza (Walkersville, MD).
# Cell Culture. […]
# 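Wherever viability, T/C is given: spheroids exposed to compounds for 7 days.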
compound,measurement,setting,value
NC(=O)C(=Cn1cnc(-c2cc(C(F)(F)F)cc(C(F)(F)F)c2)n1)c1cncnc1 + CCN1C(C(=O)NC23CCC(C(=O)O)(CC2)CC3)C(c2cccc(Cl)c2F)C2(C(=O)Nc3cc(Cl)ccc32)C12CCCCC2,IC50,second compound 0.03 µM,34.5 nM
same,IC50,second compound 0.0949 µM,29.2 nM
same,IC50,second compound 0.3 µM,37.4 nM
same,IC50,second compound 0.949 µM,38.1 nM
same,IC50,second compound 3 µM,29.3 nM
same,"viability, T/C","second compound 0.03 µM, first compound 0.000949 µM",116%
same,"viability, T/C","second compound 0.03 µM, first compound 0.003 µM",103%
same,"viability, T/C","second compound 0.03 µM, first compound 0.00949 µM",93.8%
same,"viability, T/C","second compound 0.03 µM, first compound 0.03 µM",57.9%
same,"viability, T/C","second compound 0.03 µM, first compound 0.0949 µM",9.64%
same,"viability, T/C","second compound 0.03 µM, first compound 0.3 µM",3.28%
same,"viability, T/C","second compound 0.0949 µM, first compound 0.000949 µM",139%
same,"viability, T/C","second compound 0.0949 µM, first compound 0.003 µM",101%
same,"viability, T/C","second compound 0.0949 µM, first compound 0.00949 µM",100%
same,"viability, T/C","second compound 0.0949 µM, first compound 0.03 µM",48.6%
same,"viability, T/C","second compound 0.0949 µM, first compound 0.0949 µM",10.1%
same,"viability, T/C","second compound 0.0949 µM, first compound 0.3 µM",3.82%
same,"viability, T/C","second compound 0.3 µM, first compound 0.000949 µM",121%
same,"viability, T/C","second compound 0.3 µM, first compound 0.003 µM",118%
same,"viability, T/C","second compound 0.3 µM, first compound 0.00949 µM",108%
same,"viability, T/C","second compound 0.3 µM, first compound 0.03 µM",60.3%
same,"viability, T/C","second compound 0.3 µM, first compound 0.0949 µM",8.36%
same,"viability, T/C","second compound 0.3 µM, first compound 0.3 µM",2.76%
same,"viability, T/C","second compound 0.949 µM, first compound 0.000949 µM",126%
same,"viability, T/C","second compound 0.949 µM, first compound 0.003 µM",115%
same,"viability, T/C","second compound 0.949 µM, first compound 0.00949 µM",114%
same,"viability, T/C","second compound 0.949 µM, first compound 0.03 µM",61%
same,"viability, T/C","second compound 0.949 µM, first compound 0.0949 µM",8.13%
same,"viability, T/C","second compound 0.949 µM, first compound 0.3 µM",0.97%
same,"viability, T/C","second compound 3 µM, first compound 0.000949 µM",111%
same,"viability, T/C","second compound 3 µM, first compound 0.003 µM",117%
same,"viability, T/C","second compound 3 µM, first compound 0.00949 µM",105%
same,"viability, T/C","second compound 3 µM, first compound 0.03 µM",48.8%
same,"viability, T/C","second compound 3 µM, first compound 0.0949 µM",6.01%
same,"viability, T/C","second compound 3 µM, first compound 0.3 µM",1.16%
NC1CCC(NC2CC2c2ccccc2)CC1 (stereo not given) + CCN1C(C(=O)NC23CCC(C(=O)O)(CC2)CC3)C(c2cccc(Cl)c2F)C2(C(=O)Nc3cc(Cl)ccc32)C12CCCCC2,IC50,second compound 0.03 µM,> 100 nM
same,IC50,second compound 0.0949 µM,> 100 nM
same,IC50,second compound 0.3 µM,> 100 nM
same,IC50,second compound 0.949 µM,> 100 nM
same,IC50,second compound 3 µM,> 100 nM
same,"viability, T/C","second compound 0.03 µM, first compound 0.000316 µM",123%
same,"viability, T/C","second compound 0.03 µM, first compound 0.001 µM",120%
same,"viability, T/C","second compound 0.03 µM, first compound 0.00316 µM",111%
same,"viability, T/C","second compound 0.03 µM, first compound 0.01 µM",106%
same,"viability, T/C","second compound 0.03 µM, first compound 0.0316 µM",110%
same,"viability, T/C","second compound 0.03 µM, first compound 0.1 µM",106%
same,"viability, T/C","second compound 0.0949 µM, first compound 0.000316 µM",112%
same,"viability, T/C","second compound 0.0949 µM, first compound 0.001 µM",94.4%
same,"viability, T/C","second compound 0.0949 µM, first compound 0.00316 µM",109%
same,"viability, T/C","second compound 0.0949 µM, first compound 0.01 µM",118%
same,"viability, T/C","second compound 0.0949 µM, first compound 0.0316 µM",113%
same,"viability, T/C","second compound 0.0949 µM, first compound 0.1 µM",103%
same,"viability, T/C","second compound 0.3 µM, first compound 0.000316 µM",112%
same,"viability, T/C","second compound 0.3 µM, first compound 0.001 µM",120%
same,"viability, T/C","second compound 0.3 µM, first compound 0.00316 µM",127%
same,"viability, T/C","second compound 0.3 µM, first compound 0.01 µM",107%
same,"viability, T/C","second compound 0.3 µM, first compound 0.0316 µM",125%
same,"viability, T/C","second compound 0.3 µM, first compound 0.1 µM",116%
same,"viability, T/C","second compound 0.949 µM, first compound 0.000316 µM",107%
same,"viability, T/C","second compound 0.949 µM, first compound 0.001 µM",114%
same,"viability, T/C","second compound 0.949 µM, first compound 0.00316 µM",110%
same,"viability, T/C","second compound 0.949 µM, first compound 0.01 µM",121%
same,"viability, T/C","second compound 0.949 µM, first compound 0.0316 µM",106%
same,"viability, T/C","second compound 0.949 µM, first compound 0.1 µM",115%
same,"viability, T/C","second compound 3 µM, first compound 0.000316 µM",102%
same,"viability, T/C","second compound 3 µM, first compound 0.001 µM",118%
same,"viability, T/C","second compound 3 µM, first compound 0.00316 µM",110%
same,"viability, T/C","second compound 3 µM, first compound 0.01 µM",109%
same,"viability, T/C","second compound 3 µM, first compound 0.0316 µM",110%
same,"viability, T/C","second compound 3 µM, first compound 0.1 µM",107%
